According to US20200262991A1, “Method for Tuning Topology of Polymer Particles” (UNIVERSITY OF SOUTH CAROLINA, priority 2019, published 2020):

Test system: 3T3-L1 adipocytes
Assay: Oil Red O lipid content assay in differentiated 3T3-L1 adipocytes
Format: cell-based, mouse
Conditions: 60 μM free resveratrol dissolved in ethanol, 48 hours
Protocol: 3T3-L1 fibroblasts (ATCC), were differentiated into adipocytes following ATCC's protocol, with slight modifications. Briefly, 3T3-L1 cells were seeded in 6 well plates at 80,000 cells/well and cultured in DMEM supplemented with 10% SuperCalf Serum and 1% Pen/Strep. 48 hours after confluence was reached, media was exchanged with “differentiation media” consisting of DMEM supplemented with 10% FBS, 10 μg/mL bovine insulin, 0.25 μM dexamethasone, and 0.5 mM IBMX. 48 hours after differentiation media was added, media was exchanged for DMEM supplemented with 10% FBS and 10 μg/mL bovine insulin. After another 48 hours, media was exchanged for DMEM supplemented with 10% FBS. Cells were then cultured until treatment with particles, which occurred 9 days after exposure to the differentiation media. […] Absorbance of extracted Oil Red O was measured at 500 nm using a spectrophotometer. Bioactivity of the resveratrol following the fabrication process was determined. Specifically, the ability of the resveratrol particles to induce lipolysis in differentiated 3T3-L1 adipocytes was determined by measuring lipid content with an Oil Red O assay. […] Lipid content was visualized with Oil Red O, a lipophilic dye, (FIG. 3 at A-F) and lipid content was quantified by extracting the dye (FIG. 3 at G) and measuring the solution's absorbance (FIG. 3 at H).

`Oc1ccc(/C=C/c2cc(O)cc(O)c2)cc1` [resveratrol, 3,5,4′-trihydroxy-trans-stilbene] was tested, and the “Oil Red O staining (intracellular lipid content)” value was “decreased Oil Red O staining”.
